Measured values from patent US4897406A, “Rhodanine derivatives and pharmaceutical compositions” (Nisshin Flour Milling Co., Ltd., priority 1987, dated 1990).

Experiments:
[1] = test system: excised bronchi of guinea pigs by the action of leukotriene D4; experiment: Inhibitory activity on leukotrienes (contraction induced by leukotriene D4 in excised guinea pig bronchi); conditions: Conc. 10^-5 M, treatment before 10 minutes
Description: The compounds were evaluated for inhibitory activity on leukotrienes in the following test.
In this test, contraction was induced in excised bronchi of guinea pigs by the action of leukotriene D4, and inhibitory action of the present compounds after treatment before 10 minutes was measured and recorded via a transducer.

rats = experiment: Toxicity to rats by oral administration; type: in vivo; conditions: 1000 mg/kg by oral administration
PGF2α = experiment: Inhibition of contraction of excised bronchi of guinea pigs by PGF2α; conditions: 10^-5 M
SRS-A = experiment: Inhibitory activity on biosynthesis and release of chemical mediator (SRS-A), bioassay using excised ileum; set-up: species or system guinea pigs; conditions: Conc. 10^-5 M
Description: The compounds were evaluated for inhibitory activity on biosynthesis and release of a chemical mediator according to the method described by S. Watanabe-Kohno et al [J. Immunol., 125, 946 (1980)] and J. Augastein et al [Nature, 245, 215 (1973)]. In this test, SRS-A was used as a chemical mediator.
The chemical mediator contained in the reaction solution was determined according to bioassay using excised ileum of guinea pigs.
Percent Inhibition (%)=(1-A'/A)×100
A'=contraction level by the reaction solution treated with test compound
A=contraction level by the control reaction solution

[2] = test system: contraction of excised bronchi of guinea pigs by histamine; experiment: Inhibition of contraction of excised bronchi of guinea pigs by histamine; conditions: 10^-5 M

SMILES | Percent Inhibition (inhibitory activity on leukotrienes) [1] [%] | mortality (rats) | inhibitory activity on contraction by PGF2α (PGF2α) | Percent Inhibition (biosynthesis and release of chemical mediator) (SRS-A) [%] | inhibitory activity on contraction by histamine [2]
CCCC(C=Cc1ccc(C(=O)O)cc1)=C1SC(=S)NC1=O (single isomer, unassigned) [Isomer A of Example 17, 4-[3-(4-Oxo-2-thioxo-5-thiazolidinylidene)-1-hexen-1-yl]benzoic acid] | 84.7 |  |  |  | 
COc1ccc(CCC(C)=C2SC(=S)NC2=O)cc1OC (single isomer, unassigned) [Isomer A of Example 12, 5-[3-(3,4-Dimethoxyphenyl)-1-methylpropylidene]-4-oxo-2-thioxothiazolidine] | 100.0 | no mortality was observed | 60-90% | 76.2 | 60-90%
CC(C=Cc1cccs1)=C1SC(=S)NC1=O (single isomer, unassigned) [Isomer B of Example 15, 5-[3-(2-Thienyl)-1-methyl-2-propenylidene]-4-oxo-2-thioxothiazolidine] |  |  | 60-90% |  | 60-90%
COc1ccc(CCC(C)=C2SC(=S)NC2=O)cc1OC (single isomer, unassigned) [Isomer B of Example 12, 5-[3-(3,4-Dimethoxyphenyl)-1-methylpropylidene]-4-oxo-2-thioxothiazolidine] | 97.9 | no mortality was observed | 60-90% | 70.6 | 60-90%
CCOC(=O)CCCC(C=Cc1ccc(OC)c(OC)c1)=C1SC(=S)NC1=O [Ethyl ester compound of Example 19, ethyl 7(3,4-dimethoxyphenyl)-5-(4-oxo-2-thioxo-5-thiazolidinilydene)-6-heptenoate] | 90.5 |  |  |  | 
CCCC(C=Cc1ccc(C(=O)O)cc1)=C1SC(=S)NC1=O (single isomer, unassigned) [Isomer B of Example 17, 4-[3-(4-Oxo-2-thioxo-5-thiazolidinylidene)-1-hexen-1-yl]benzoic acid] | 79.8 |  |  |  | 
CCOC(=O)CCC(C=Cc1ccc(OC)c(OC)c1)=C1SC(=S)NC1=O [Compound of Example 14, Ethyl 6-(3,4-dimethoxyphenyl)-4-(4-oxo-2-thioxo-5-thiazolidinylidene)-5-hexenoate] | 98.1 |  | 60-90% |  | 60-90%
COc1ccc(C=CC(C)=C2SC(=S)NC2=O)cc1OC (single isomer, unassigned) [Isomer B of Example 1] | 82.4 |  | 60-90% | 58.0 | 60-90%
COc1ccc(C=CC(CCCC(=O)O)=C2SC(=S)NC2=O)cc1OC (single isomer, unassigned) [Isomer B of Example 19, 7-(3,4-dimethoxyphenyl)-5-(4-oxo-2-thioxo-5-thiazolidinilydene)-6-heptenoic acid] | 85.1 |  |  |  | 
